42 compounds from patent publication US20260028330A1, “HETEROARYL CARBOXAMIDE AND RELATED GPR84 ANTAGONISTS AND USES THEREOF” (LIMINAL BIOSCIENCES LIMITED, priority 2022, published 2026) can be followed below.

The target in this experiment is T1, human GPR84 receptor (Homo sapiens, UniProt Q9NQS5).
T1 construct: host or cells: HEK293 cells, transient transfection
Nature of the experiment: Gαi biosensor BRET assay in transfected HEK293 cells (antagonism of GPR84 agonist ZQ-16). It is filed as cell-based. As to conditions: 200 nmol/L ZQ-16; for inhibition at 2 µM / inhibition at 10 µM: HEK293, single concentration; for inhibition at 2 µM: code A = 2 μM; for inhibition at 10 µM: code F = 10 μM. An excerpt: Background—The following assays can be used for determination of GPR84 activation in living HEK293 cells. The Gαi BRET biosensor (Gagnon et al., 2018; Gales et al., 2006. Nat Struct Mol Biol. 13, 778-86; Saulieres et al., 2012. Nat Chem Biol. 8, 622-30) allows to directly monitor GPR84-mediated activation of Gαi. The Gαi biosensor consists of a Rluc8-tagged Gαi2 subunit, a GFP10-tagged Gγ2 subunit, and an untagged Gβ1. Agonist stimulation and GPR84 activation triggers a physical separation between the RLuc8-Gαi donor and the GFP10-Gγ2 acceptor, resulting in a decrease in BRET signal whose amplitude is correlated to ligand efficacy (Gales et al., 2006). Moreover, signaling functions of GPCRs are tightly regulated by endocytosis, the targeting of receptors to endosomes and their sorting to lysosomes or recycling to the plasma membrane. The early endosomes (EEs) trafficking assay (Namkung et al., 2016. Nat Commun. 7, 12178) uses Rluc8-tagged GPR84 and Renilla GFP (rGFP) attached to the FYVE domain from human endofin/zinc finger FYVE domain-containing protein 16, which binds phosphatidylinositol 3-phosphate in EEs. Agonist stimulation of GPR84-Rluc8 leads to trafficking of the receptor to EEs, and ensuing increase of the donor concentration relative to the rGFP-FYVE acceptor anchored in the same cellular compartment, and thus results in an increase in BRET signal.
Plasmids—The cDNA clones for human GPR84 receptor, human Gαi2, Gβ1, and Gγ2 were obtained from the cDNA Resource Center (www.cdna.org). GFP10 (F64L, S147P, S202F and H231L variant of Aequorea victoria Green Fluorescent Protein) gBlocks gene fragments (Integrated DNA Technologies, IA) and linker were inserted in frame at the N-terminus of human Gγ2. Rluc8 (A55T, C124A, S130A, K136R, A143M, M185V, M253L, and S287L variant of the Renilla reniformis luciferase) gBlocks gene fragment was inserted with linkers in frame in between residues 91 and 92 of Gα2 or at the C-terminus of GPR84. The FYVE domain from human endofin (residues Q739 to K806) attached in frame at the C terminus of a humanized Renilla GFP (rGFP), were synthesized as gBlocks gene fragments.
Bioluminescence Resonance Energy Transfer (BRET) Measurement—HEK293 cells were transfected with GPR84-Rluc8 and rGFP-FYVE for the EEs trafficking biosensor or with GPR84, Gαi2-Rluc8, GFP10-Gγ2, and Gβ1 for the Gαi biosensor. The following day, transiently transfected cells were seeded in 96-well white clear bottom microplates coated with poly-D-lysine and left in culture for 24 hours. Cells were washed once with Tyrode's buffer (140 mmol/L NaCl, 1 mmol/L CaCl2, 2.7 mmol/L KCl, 0.49 mmol/L MgCl2, 0.37 mmol/L NaH2PO4, 5.6 mmol/L glucose, 12 mmol/L NaHCO3, and 25 mmol/L HEPES, pH 7.5) before performing assays in Tyrode's buffer. Test compounds were incubated with cells for 5 (Gui) or 15 (EEs) minutes at 37° C. before addition of 200 nmol/L of the GPR84 agonist ZQ-16 (2-(Hexylthio)-6-hydroxy-4(3H)-pyrimidinone) for 5 minutes at room temperature (Gui) or 30 minutes at 37° C. (EEs). The Rluc8 substrate coelenterazine 400A (Prolume, Lakeside, AZ) was added at a final concentration of 5 μmol/L and BRET readings were collected using an Infinite M1000 microplate reader (Tecan, Morrisville, NC). BRET^2 readings between Rluc8 and GFP10 or rGFP were collected by sequential integration of the signals detected in the 370 to 450 nm (Rluc8) and 510 to 540 nm (GFP10, rGFP) windows. The BRET signal was calculated as the ratio of light emitted by acceptor (GFP10, rGFP) over the light emitted by donor (Rluc8). The values were corrected to net BRET by subtracting the background BRET signal obtained in cells transfected with Rluc8 constructs alone. Ligand-promoted net BRET values were calculated by subtracting vehicle-induced net BRET from ligand-induced net BRET.
For orientation: Bioluminescence resonance energy transfer reports proximity on the nanometre scale.

T1 sequence (Q9NQS5 whole entry): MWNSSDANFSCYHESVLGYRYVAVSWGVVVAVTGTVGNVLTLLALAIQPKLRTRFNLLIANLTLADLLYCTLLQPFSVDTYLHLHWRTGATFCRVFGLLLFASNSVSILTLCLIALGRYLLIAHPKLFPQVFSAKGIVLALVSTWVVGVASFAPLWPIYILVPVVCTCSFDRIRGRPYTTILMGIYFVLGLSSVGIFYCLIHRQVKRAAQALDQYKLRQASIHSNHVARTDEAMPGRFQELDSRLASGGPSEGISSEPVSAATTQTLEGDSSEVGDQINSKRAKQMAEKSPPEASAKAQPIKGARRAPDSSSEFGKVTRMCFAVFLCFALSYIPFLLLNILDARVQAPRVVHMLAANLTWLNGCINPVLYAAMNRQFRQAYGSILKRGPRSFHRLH

The IC50 is the concentration that gives 50% inhibition. The low end stands for inhibition by little substance, the high end for a need for much substance. What is called inhibition is the drop in the measured response relative to a control, in per cent. Compound `Cc1cc(F)c(C#CC2CC2)cc1N(C)C(=O)c1cn(CC2OCC3(CC3)CO2)nn1` [Compound I-100] gave an IC50 of at most 300 nM and an inhibition at 2 µM of over 75%. With `Cc1ccc(C#CC2CC2)cc1C(=O)N(C)c1cn(CC2OCC3(CC3)CO2)nn1` [Compound I-16], the inhibition at 10 µM was at most 25%. `CN(C(=O)c1cn(CC2OCC3(CC3)CO2)nn1)c1c(F)cc(C#CC2CC2)cc1F` [Compound I-43] registered an IC50 of at most 300 nM and an inhibition at 2 µM of over 75%. The compound `Cc1cc(C#CC2CC2)ccc1NCc1cn(CC2OCC3(CC3)CO2)nn1` [Compound I-39] yielded an inhibition at 10 µM of 25 to 50%. Regarding `Cc1cc(C#CC2CC2)ccc1/N=C(\OC(C)C)c1cn(CC2OCC3(CC3)CO2)nn1` [Compound I-85], the inhibition at 10 µM lay in the range of 25 to 50%. In the case of `Cc1c(NC(=O)c2cccc(C#CC3CC3)c2)nnn1CC1OCC2(CC2)CO1` [Compound I-64], the inhibition at 10 µM is at most 25%. `Cc1ccc(C#CC2CC2)cc1N(C)C(=O)c1c(C)cc(OCC(=O)N(C)C)cc1C` [Compound I-35] returned an inhibition at 10 µM of 25 to 50%. For the compound `CN(C(=O)c1cn(CC2OCC3(CC3)CO2)nn1)c1cccc(C#CC2CC2)c1` [Compound I-23], the IC50 lay within 300 to 1000 nM and the inhibition at 10 µM was over 75%. Compound `Cc1cc(C#CC2CC2)ccc1N(C(=O)c1cn(CC2OCC3(CC3)CO2)nn1)C(C)C` [Compound I-84] returned an IC50 of at most 300 nM and an inhibition at 2 µM of over 75%.

`Cc1cc(C#CC2CC2)ccc1C(=O)Nc1cn(CC2OCC3(CC3)CO2)nn1` [Compound I-20] gave an inhibition at 10 µM of at most 25%.

On to `Cc1ccccc1NC(=O)c1cn(CC2OCC3(CC3)CO2)nn1` [Compound I-30], for which the inhibition at 10 µM is at most 25%. Still for that read-out and setting: the value for `Cc1ccc(C#CC2CC2)cc1Nc1cn(CC2OCC3(CC3)CO2)cn1` [Compound I-15] was at most 25%. Regarding `Cc1ccc(C#CC2CC2)nc1N(C)C(=O)c1cn(CC2OCC3(CC3)CO2)nn1` [Compound I-36], the inhibition at 10 µM lay in the range of 25 to 50%. `Cc1cc(C#CC2CC2)cc2c1C(N(C)c1cn(CC3OCC4(CC4)CO3)nn1)CC2` (stereo not shown) [Compound I-53] came in with an inhibition at 10 µM of 25 to 50%. Still for that read-out and setting: the value for `O=C(Nc1cccc(C#CC2CC2)c1)c1cn(CC2OCC3(CC3)CO2)nn1` [Compound I-97] was at most 25%; that for `Cc1ccccc1N(C)C(=O)c1cn(CC2OCC3(CC3)CO2)nn1` [Compound I-33] was at most 25%. On to `Cc1cc(C#CC2CC2)cc(C)c1N(C)C(=O)c1cn(CC2OCC3(CC3)CO2)nn1` [Compound I-60], for which the IC50 fell in the range of 300 to 1000 nM and the inhibition at 10 µM was over 75%.

For `Cc1cc(OCC(=O)N(C)C)ccc1C(=O)N(C)c1cc(C#CC2CC2)ccc1C` [Compound I-27], the inhibition at 10 µM was at most 25%. In turn, `CN(c1cn(CC2OCC3(CC3)CO2)nn1)c1cc(C#CC2CC2)ccc1Cl` [Compound I-8, 1-((5,7-dioxaspiro[2.5]octan-6-yl)methyl)-N-(2-chloro-5-(cyclopropylethynyl)phenyl)-N-methyl-1H-1,2,3-triazol-4-amine] showed an inhibition at 10 µM of over 75%. On to `CN(C(=O)c1cn(CC2OCC3(CC3)CO2)nn1)c1cc(C#CC2CC2)ccc1C1CC1` [Compound I-47], for which the IC50 is 300 to 1000 nM and the inhibition at 10 µM is over 75%. `O=C(Nc1cc(C#CC2CC2)ccc1Cl)c1cn(CC2OCC3(CC3)CO2)nn1` [Compound I-96] registered an inhibition at 10 µM of at most 25%.

`CN(C)c1ccc(C#CC2CC2)cc1NC(=O)c1cn(CC2OCC3(CC3)CO2)nn1` [Compound I-102] showed an inhibition at 10 µM of at most 25%. `CCc1ccc(C#CC2CC2)cc1NC(=O)c1cn(CC2OCC3(CC3)CO2)nn1` [Compound I-103] yielded an inhibition at 10 µM of at most 25%. The compound `Cc1ccc(C#CC2CC2)cc1N(C)C(=O)c1cn(CC2OCC3(CC3)CO2)nn1` [Compound I-17] displayed an IC50 of at most 300 nM and an inhibition at 2 µM of over 75%. Consider `Cc1ccc(C#CC2CC2)cc1N(C)C(=O)c1ncc(OCC(=O)N(C)C)cc1C` [Compound I-34], for which the inhibition at 10 µM is at most 25%.

Regarding `Cc1c(N(C)C(=O)c2cccc(C#CC3CC3)c2)nnn1CC1OCC2(CC2)CO1` [Compound I-63], the inhibition at 10 µM was at most 25%.

In turn, `Cc1cc(C#CC2CC2)ccc1OC(=O)c1cn(CC2OCC3(CC3)CO2)nn1` [Compound I-46] came in with an inhibition at 10 µM of 25 to 50%.

Compound `Cc1cc(C#CC2CC2)ccc1NC(=O)c1cn(CC2OCC3(CC3)CO2)nn1` [Compound I-18] had an inhibition at 10 µM of at most 25%.

Compound `Cc1ccc(C#CC2CC2)cc1CN(C)c1cn(CC2OCC3(CC3)CO2)nn1` [Compound I-10, 1-((5,7-dioxaspiro[2.5]octan-6-yl)methyl)-N-(5-(cyclopropylethynyl)-2-methylbenzyl)-N-methyl-1H-1,2,3-triazol-4-amine] displayed an inhibition at 10 µM of 25 to 50%.

Compound `CN(c1ccc(C#CC2CC2)cc1)c1cn(CC2OCC(C)(C)CO2)nn1` [Compound I-82] returned an inhibition at 10 µM of at most 25%. The same measure, in the same setting: to `Cc1ccc(C#CC2CC2)cc1N(C)C(=O)c1cn(CCC(=O)N(C)C)nn1` [Compound I-24] belongs at most 25%. Take `Cc1cc(C#CC2CC2)ccc1N(C(=O)c1cn(CC2OCC3(CC3)CO2)nn1)C1CC1` [Compound I-83]: the IC50 is at most 300 nM and the inhibition at 2 µM was over 75%. On to `Cc1cc(F)c(C#CC2CC2)cc1NC(=O)c1cn(CC2OCC3(CC3)CO2)nn1` [Compound I-101], for which the inhibition at 10 µM is at most 25%.

`Cc1ccc(C#CC2CC2)cc1/N=C(\OC(C)C)c1cn(CC2OCC3(CC3)CO2)nn1` [Compound I-87] showed an inhibition at 10 µM of over 75%. Consider `Cc1ccc(C#CC2CC2)cc1NCc1cn(CC2OCC3(CC3)CO2)nn1` [Compound I-11, N-((1-((5,7-dioxaspiro[2.5]octan-6-yl)methyl)-1H-1,2,3-triazol-4-yl)methyl)-5-(cyclopropylethynyl)-2-methylaniline], for which the inhibition at 2 µM was at most 25%. For the compound `CN(C(=O)c1cn(CC2OCC3(CC3)CO2)cn1)c1ccc(C#CC2CC2)cc1F` [Compound I-59], the IC50 was at most 300 nM and the inhibition at 2 µM is over 75%.

Take `Cc1cc(C#CC2CC2)c2c(c1)CCC2N(C)c1cn(CC2OCC3(CC3)CO2)nn1` (stereo not shown) [Compound I-81]: the inhibition at 2 µM was at most 25%. `Cc1ccc(C#CC2CC2)cc1N(C)C(=O)c1cn(CC(=O)N(C)C)nn1` [Compound I-13, N-(5-(cyclopropylethynyl)-2-methylphenyl)-1-(2-(dimethylamino)-2-oxoethyl)-N-methyl-1H-1,2,3-triazole-4-carboxamide] yielded an inhibition at 10 µM of 25 to 50%. The compound `Cc1ccc(N(C)C(=O)c2cn(CC3OCC4(CC4)CO3)nn2)nc1C#CC1CC1` [Compound I-50] showed an inhibition at 10 µM of at most 25%. The compound `CN(Cc1ccc(C#CC2CC2)cc1C1CC1)c1cn(CC2OCC3(CC3)CO2)nn1` [Compound I-51] had an inhibition at 10 µM of over 75%. In turn, `Cc1cc(C#CC2CC2)ccc1N(C)Cc1cn(CC2OCC3(CC3)CO2)nn1` [Compound I-40] registered an inhibition at 10 µM of over 75%. On to `Cc1cc(C#CC2CC2)ccc1N(C)C(=O)c1cnn(CC2OCC3(CC3)CO2)c1` [Compound I-105], for which the IC50 lay within 300 to 1000 nM and the inhibition at 10 µM is over 75%.
